Experimental data published in US20070072938A1, “DRONABINOL TREATMENT OF DELAYED CHEMOTHERAPY-INDUCED NAUSEA AND VOMITING” (priority 2005, published 2007).
Marks after values point to notes of the source that are not given here.

Experiments:
[1] = test system: patients receiving moderately to highly emetogenic chemotherapy; assay: Randomized, double-blind, placebo-controlled study: antiemetic efficacy in delayed CINV (Days 2-5); format: in vivo, human
Procedure: (§1) A randomized, double-blind, placebo-controlled, parallel-group study evaluating the antiemetic efficacy and tolerability of oral dronabinol alone, dronabinol in combination with ondansetron, ondansetron alone, and placebo in patients receiving moderate to high emetogenic chemotherapy was conducted. All patients received dexamethasone 20 mg and ondansetron 16 mg intravenously prechemotherapy. […] On Day 2, placebo or fixed doses of 10 mg dronabinol, 16 mg ondansetron, or dronabinol plus ondansetron were administered. On Days 3-5, patients received placebo, flexible doses of 10-20 mg dronabinol, 8-16 mg ondansetron, or dronabinol plus ondansetron. Rescue antiemetics were permitted after using the maximum dose of medication. The primary efficacy variable was total response (“TR”) to study medication (TR=nausea intensity<5 mm on a 100-mm visual analog scale, no vomiting/retching, no rescue antiemetic). Secondary efficacy parameters included nausea status and intensity, as well as episodes of vomiting/retching. […] TR and presence/absence of nausea were evaluated using the Fisher's Exact Test. Tolerability was assessed by physical examination and adverse events.
All efficacy analyses were based on the ITT population.
This was a randomized, double-blind, placebo-controlled, parallel-group, 5-day study to evaluate the antiemetic efficacy and safety of oral dronabinol (sole under the trade name, Marinol®) alone, and in combination with ondansetron (sole under the trade name, Zofran®), versus ondansetron alone in patients receiving moderately to highly emetogenic chemotherapy. The investigator obtained written approval from the Institutional Review Board, and the study was conducted in accordance with the Declaration of Helsinki.
Patients who entered the study were to undergo cancer chemotherapy with moderately to highly emetogenic agents on Day 1 when they were randomized into 1 of 4 treatment groups: dronabinol alone (Group Dronabinol), ondansetron alone (Group Ondansetron), combination therapy with dronabinol and ondansetron (Group Dronabinol/Ondansetron), or placebo (Group Placebo). All patients received a standard prechemotherapy regimen of dexamethasone (20 mg) and ondansetron (16 mg). […] Placebo patients received matching placebo prechemotherapy and postchemotherapy on Day 1.
(§2) A kit of open-label antiemetics (metoclopramide 10 mg, prochlorperazine 5 mg, and prochlorperazine 25-mg suppository) was provided to the study participants for use on Days 1 through 8 as rescue medications to treat intolerable nausea and vomiting and/or retching after using the maximum dose of study medication at any dosing interval. Patients recorded the use of rescue medication and returned the unused portion of the kit.
Each morning, patients recorded the number of vomiting and/or retching episodes in the previous day. In addition, the patient recorded the daily presence or absence of nausea and its duration.
The primary efficacy measure was the incidence of total response to treatment following administration of moderately to highly emetogenic chemotherapeutic agents. Total response was defined as no vomiting and/or retching, intensity of nausea <5 mm on a 100-mm Visual Analog Scale (VAS scale 0-100 mm; 0 mm=no nausea; 100 mm=intractable nausea), and no use of rescue medication.
The secondary efficacy analysis included patients who took rescue medication. However, analyses were conducted only on data collected before the use of any rescue medication. The secondary efficacy assessments were complete response, presence or absence of nausea, episodes of vomiting and/or retching, duration of nausea and vomiting and/or retching, intensity of nausea measured by VAS, ECOG (wellness), and QoL. Complete response for vomiting/retching was defined as no vomiting/retching, intensity of nausea of ≦30 mm on the VAS, and no use of rescue therapy.

[2] = test system: patients receiving moderately to highly emetogenic chemotherapy; assay: Safety and tolerability: treatment-emergent adverse events (safety population)
Procedure: as §1
AEs and concomitant medications were also assessed.

[3] = test system: patients receiving moderately to highly emetogenic chemotherapy; assay: Other analyses: rescue antiemetic use and compliance with study medication; format: in vivo, human
Procedure: as §2
For the primary efficacy parameter, a logistic regression model was used for the primary analysis and a Cochran-Mantel-Haenszel (“CMH”) test stratified by pooled center was performed as a supportive analysis. Continuous secondary efficacy parameters were analyzed for all pairwise comparisons using a 2-way analysis of variance (“ANOVA”) with treatment and pooled center as fixed factors. For data that was not normally distributed, data were ranked, and an ANOVA was performed on the ranked scores. Categorical secondary efficacy parameters were analyzed for all pairwise comparisons using the CMH test stratified by pooled center. No adjustment for multiple comparisons was performed for the secondary efficacy parameters. No interactions were examined for the secondary efficacy parameters. Compliance with study medication was defined as taking all doses of supplied medication and was measured throughout the trial.

[4] = test system: patients receiving moderately to highly emetogenic chemotherapy; assay: ECOG (wellness) and McCorkle Symptom Distress Scale (QoL) assessment; format: in vivo, human
Procedure: The secondary efficacy analysis included patients who took rescue medication. However, analyses were conducted only on data collected before the use of any rescue medication. The secondary efficacy assessments were complete response, presence or absence of nausea, episodes of vomiting and/or retching, duration of nausea and vomiting and/or retching, intensity of nausea measured by VAS, ECOG (wellness), and QoL. Complete response for vomiting/retching was defined as no vomiting/retching, intensity of nausea of ≦30 mm on the VAS, and no use of rescue therapy. The presence or absence of nausea, episodes of vomiting and/or retching, and duration of nausea and vomiting and/or retching were assessed from daily patient telephone diary entries completed each morning to report the previous day. The patient was prompted through the Interactive Voice Response System to use the standard VAS to assess nausea intensity. The ECOG (wellness) assessment was clinician administered at screening and again on Day 6, Day 7, or Day 8 (or early termination). The possible range of the ECOG assessment was 0 to 4, where 0 was normal activity with no limitations and 4 was very sick, rarely out of bed.
The McCorkle Symptom Distress Scale (QoL assessment) evaluation was conducted on Day 1 (postchemotherapy) and again on Day 6, Day 7, or Day 8 (or early termination). […]

Compound: CCCCCc1cc(O)c2c(c1)OC(C)(C)[C@@H]1CCC(C)=C[C@@H]21 [Dronabinol, delta-9-tetrahydrocannabinol]
- Duration of nausea: 3-6 h ([1]; Day 2): 0 n (%)
- Duration of nausea: 6-8 h ([1]; Day 2): 1 (8) n (%)
- Duration of nausea: 8-10 h ([1]; Day 2): 0 n (%)
- Duration of nausea: <3 h ([1]; Day 2): 1 (8) n (%)
- Duration of nausea: >10 h ([1]; Day 2): 2 (15) n (%)
- Duration of nausea: No nausea reported ([1]; Day 2): 9 (69) n (%)
- Observed Duration of Vomiting/Retching (mean ± SD) ([1]; Day 2): 0.00 ± 0.00 h
- Duration of nausea: 3-6 h ([1]; Day 3): 0 n (%)
- Duration of nausea: 6-8 h ([1]; Day 3): 2 (17) n (%)
- Duration of nausea: 8-10 h ([1]; Day 3): 0 n (%)
- Duration of nausea: <3 h ([1]; Day 3): 2 (17) n (%)
- Duration of nausea: >10 h ([1]; Day 3): 1 (8) n (%)
- Duration of nausea: No nausea reported ([1]; Day 3): 7 (58) n (%)
- Observed Duration of Vomiting/Retching (mean ± SD) ([1]; Day 3): 0.41 ± 1.36 h
- Duration of nausea: 3-6 h ([1]; Day 4): 0 n (%)
- Duration of nausea: 6-8 h ([1]; Day 4): 0 n (%)
- Duration of nausea: 8-10 h ([1]; Day 4): 0 n (%)
- Duration of nausea: <3 h ([1]; Day 4): 1 (11) n (%)
- Duration of nausea: >10 h ([1]; Day 4): 0 n (%)
- Duration of nausea: No nausea reported ([1]; Day 4): 8 (89) n (%)
- Observed Duration of Vomiting/Retching (mean ± SD) ([1]; Day 4): 0.00 ± 0.01 h
- Duration of nausea: 3-6 h ([1]; Day 5): 0 n (%)
- Duration of nausea: 6-8 h ([1]; Day 5): 0 n (%)
- Duration of nausea: 8-10 h ([1]; Day 5): 0 n (%)
- Duration of nausea: <3 h ([1]; Day 5): 1 (13) n (%)
- Duration of nausea: >10 h ([1]; Day 5): 0 n (%)
- Duration of nausea: No nausea reported ([1]; Day 5): 7 (88) n (%)
- Observed Duration of Vomiting/Retching (mean ± SD) ([1]; Day 5): 0.00 ± 0.00 h
- Absence of nausea ([1]; Days 2-5): 71^† %
- Absence of nausea (frequency/n) ([1]; Days 2-5): (10/14)
- Mean vomiting/retching ([1]; Days 2-5): 0.2 episodes/day
- Total response (frequency/n) ([1]; Days 2-5): (7/13)
- Mean nausea intensity ([1]; Days 2-5, 100-mm VAS): 10.1^† mm
- Absence of nausea ([1]; Days 2-5, listed as dronabinol): 71%
- Total response ([1]; Days 2-5 LOCF end point, TR = nausea <5 mm VAS, no vomiting/retching, no rescue): 54%
- Complete Response: No ([1]; LOCF End Point (Days 2-5)): 5 (38) n (%)
- Complete Response: Yes ([1]; LOCF End Point (Days 2-5)): 8 (62) n (%)
- antiemetic effect for delayed CINV ([1]; result in words): comparable with ondansetron
- Adverse event: Asthenia ([2]; Safety Population): 2 (12) n (%)
- Adverse event: Chest pain ([2]; Safety Population): 1 (6) n (%)
- Adverse event: Constipation ([2]; Safety Population): 1 (6) n (%)
- Adverse event: Diarrhea ([2]; Safety Population): 4 (24) n (%)
- Adverse event: Dizziness ([2]; Safety Population): 1 (6) n (%)
- Adverse event: Fatigue ([2]; Safety Population): 2 (12) n (%)
- Adverse event: Headache ([2]; Safety Population): 0 n (%)
- Adverse event: Hyperglycemia ([2]; Safety Population): 0 n (%)
- Adverse event: Insomnia ([2]; Safety Population): 0 n (%)
- Patients who permanently discontinued study medication because of a TEAE ([2]; Safety Population): 1 (6) n (%)
- Patients with at least 1 SAE ([2]; Safety Population): 2 (12) n (%)
- Patients with at least 1 TEAE ([2]; Safety Population): 14 (82) n (%)
- Patients with at least 1 TEAE leading to dose reduction ([2]; Safety Population): 0 n (%)
- Patients with at least 1 severe TEAE ([2]; Safety Population): 2 (12) n (%)
- incidence of CNS-related events ([2]; result in words): low and few CNS-related AEs
- tolerability ([2]; result in words): well tolerated
- patients who required rescue medicine ([3]; Day 5): 12%
- Rescue antiemetics used (patients) ([3]; whole study): 24%
- McCorkle Symptom Distress Scale (QoL), mean change from baseline ([4]; Day 1 versus Day 6, 7 or 8, lower values = less distress): −2.0±4.2
- ECOG (wellness) change after treatment ([4]; result in words): Shifts in ECOG from 1 to 0 (improvement)
